{"source": "paper PMC11845477", "about": "“Exploring the principles behind antibiotics with limited resistance” (Nature Communications, 2025)", "key": {"[1]": {"system": "E. coli ATCC 25922 (SEN) and E. coli NCTC13846 (MDR)", "assay": "Adaptive laboratory evolution (ALE), relative MIC of evolved lines", "assay_type": "cell-based, Escherichia coli", "outline": "(§1)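 Ten parallel populations per antibiotic–ancestor pair were evolved in MHB at 37 °C, starting near 50% growth-inhibiting drug. Every 72 h they were passaged into 0.5–2.5× increasing concentrations, keeping the highest-drug well with OD600 > 0.2.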"}, "[2]": {"system": "K. pneumoniae ATCC 10031 (SEN) and K. pneumoniae ATCC 700603 (MDR)", "assay": "Adaptive laboratory evolution (ALE), relative MIC of evolved lines", "assay_type": "cell-based, Klebsiella pneumoniae", "outline": "as §1"}}}
{"substance": "polymyxin-B", "values": [{"measurement": "MIC of evolved line", "setting": "[1]; EC-MDR NCTC 13846, evolved line 3", "result": 64, "unit": "µg/mL"}, {"measurement": "MIC of evolved line", "setting": "[1]; EC-MDR NCTC 13846, evolved line 5", "result": 64, "unit": "µg/mL"}, {"measurement": "MIC of evolved line", "setting": "[1]; EC-MDR NCTC 13846, evolved line 6", "result": 64, "unit": "µg/mL"}, {"measurement": "MIC of evolved line", "setting": "[1]; EC-MDR NCTC 13846, evolved line 8", "result": 32, "unit": "µg/mL"}, {"measurement": "MIC of evolved line", "setting": "[1]; EC-MDR NCTC 13846, evolved line 9", "result": 64, "unit": "µg/mL"}, {"measurement": "MIC of evolved line", "setting": "[1]; EC-MDR NCTC 13846, evolved line 10", "result": 64, "unit": "µg/mL"}, {"measurement": "MIC of evolved line", "setting": "[1]; EC-SEN (E. coli ATCC 25922), evolved line 1 of the given antibiotic", "result": 64, "unit": "µg/mL"}, {"measurement": "MIC of evolved line", "setting": "[1]; EC-SEN (E. coli ATCC 25922), evolved line 3 of the given antibiotic", "result": 64, "unit": "µg/mL"}, {"measurement": "MIC of evolved line", "setting": "[1]; EC-SEN (E. coli ATCC 25922), evolved line 7 of the given antibiotic", "result": 64, "unit": "µg/mL"}, {"measurement": "MIC of evolved line", "setting": "[1]; EC-SEN (E. coli ATCC 25922), evolved line 9 of the given antibiotic", "result": 64, "unit": "µg/mL"}, {"measurement": "MIC of evolved line", "setting": "[2]; KP-MDR ATCC 700603, evolved line 1", "result": 512, "unit": "µg/mL"}, {"measurement": "MIC of evolved line", "setting": "[2]; KP-MDR ATCC 700603, evolved line 2", "result": 512, "unit": "µg/mL"}, {"measurement": "MIC of evolved line", "setting": "[2]; KP-MDR ATCC 700603, evolved line 3", "result": 256, "unit": "µg/mL"}, {"measurement": "MIC of evolved line", "setting": "[2]; KP-MDR ATCC 700603, evolved line 4", "result": 256, "unit": "µg/mL"}, {"measurement": "MIC of evolved line", "setting": "[2]; KP-MDR ATCC 700603, evolved line 5", "result": 256, "unit": "µg/mL"}, {"measurement": "MIC of evolved line", "setting": "[2]; KP-MDR ATCC 700603, evolved line 6", "result": 256, "unit": "µg/mL"}, {"measurement": "MIC of evolved line", "setting": "[2]; KP-MDR ATCC 700603, evolved line 7", "result": 256, "unit": "µg/mL"}, {"measurement": "MIC of evolved line", "setting": "[2]; KP-MDR ATCC 700603, evolved line 8", "result": 512, "unit": "µg/mL"}, {"measurement": "MIC of evolved line", "setting": "[2]; KP-MDR ATCC 700603, evolved line 9", "result": 256, "unit": "µg/mL"}, {"measurement": "MIC of evolved line", "setting": "[2]; KP-MDR ATCC 700603, evolved line 10", "result": 256, "unit": "µg/mL"}, {"measurement": "MIC of evolved line", "setting": "[2]; KP-SEN (K. pneumoniae ATCC 10031), evolved line 1 of the given antibiotic", "result": 512, "unit": "µg/mL"}, {"measurement": "MIC of evolved line", "setting": "[2]; KP-SEN (K. pneumoniae ATCC 10031), evolved line 2 of the given antibiotic", "result": 1020, "unit": "µg/mL"}, {"measurement": "MIC of evolved line", "setting": "[2]; KP-SEN (K. pneumoniae ATCC 10031), evolved line 3 of the given antibiotic", "result": 1020, "unit": "µg/mL"}, {"measurement": "MIC of evolved line", "setting": "[2]; KP-SEN (K. pneumoniae ATCC 10031), evolved line 4 of the given antibiotic", "result": 256, "unit": "µg/mL"}, {"measurement": "MIC of evolved line", "setting": "[2]; KP-SEN (K. pneumoniae ATCC 10031), evolved line 5 of the given antibiotic", "result": 1020, "unit": "µg/mL"}, {"measurement": "MIC of evolved line", "setting": "[2]; KP-SEN (K. pneumoniae ATCC 10031), evolved line 7 of the given antibiotic", "result": 256, "unit": "µg/mL"}, {"measurement": "MIC of evolved line", "setting": "[2]; KP-SEN (K. pneumoniae ATCC 10031), evolved line 8 of the given antibiotic", "result": 256, "unit": "µg/mL"}, {"measurement": "MIC of evolved line", "setting": "[2]; KP-SEN (K. pneumoniae ATCC 10031), evolved line 9 of the given antibiotic", "result": 1020, "unit": "µg/mL"}, {"measurement": "MIC of evolved line", "setting": "[2]; KP-SEN (K. pneumoniae ATCC 10031), evolved line 10 of the given antibiotic", "result": 32, "unit": "µg/mL"}]}
